Patent US20210087206A1, “MACROCYCLIC KINASE INHIBITORS AND THEIR USE” (TURNING POINT THERAPEUTICS, INC., priority 2017, published 2021)

What was measured:
Experiment in all cases: Cell proliferation assay (CellTiter-Glo)
Format in all cases: cell-based
[1] = test system: KM12 (TPM3-TRKA); settings: Homo sapiens, anti-cell proliferation, 72 hours
Procedure: (§1) Cell Lines and Cell Culture:
(§2) Colorectal cell line KM 12 (harboring endogenous TPM3-TRKA fusion gene) was obtained from NCI. Acute myelogenous cell line KG-1 (harboring endogenous OP2-FGFR1 fusion gene) were purchased from ATCC.
(§3) Cell Proliferation Assays:
(§4) Two thousand cells per well were seeded in 384 well white plate for 24 hrs, and then treated with compounds for 72 hours (37° C., 5% CO2). Cell proliferation was measured using CellTiter-Glo luciferase-based ATP detection assay (Promega) following the manufactures's protocol. IC50 determinations were performed using GraphPad Prism software (GraphPad, Inc., San Diego, Calif.).

[2] = test system: KG-1 cell (OP2-FGFR1); settings: Homo sapiens, anti-cell proliferation, 72 hours
Procedure: as §1, §2, §3, §4

[3] = biological target: T1, BaF3 EML4-ALK (Homo sapiens, UniProt Q9UM73); settings: anti-cell proliferation, 72 hours
T1 construct: The EML4-ALK gene (variant 1) was synthesized at GenScript and cloned into pCDH-CMV-MCS-EF1-Puro plasmid (System Biosciences, Inc); fused on or other part: EML4 N-terminal part (variant 1: exons 1-13, with the coiled-coil that oligomerises the fusion) fused to the intracellular part of ALK, which contains the kinase domain; Q9HC35 (Echinoderm microtubule-associated protein-like 4)
Procedure: Cloning and Ba/F3 or NIH3T3 Stable Cell Line Creation
The EML4-ALK gene (variant 1) was synthesized at GenScript and cloned into pCDH-CMV-MCS-EF1-Puro plasmid (System Biosciences, Inc). Ba/F3-EML4-ALK wild type were generated by transducing Ba/F3 cells with lentivirus containing EML4-ALK wide type. Stable cell lines were selected by puromycin treatment, followed by IL-3 withdrawal. Briefly, 5×10^6 Ba/F3 cells were transduced with lentivirus supernatant in the presence of 8 μg/mL protamine sulfate. The transduced cells were subsequently selected with 1 μg/mL puromycin in the presence of IL3-containing medium RPMI1640, plus 10% FBS. After 10-12 days of selection, the surviving cells were further selected for IL3 independent growth.
as §3, §4

T1 sequence (Q9UM73 whole entry, stated change not applied, the tested form may be a part): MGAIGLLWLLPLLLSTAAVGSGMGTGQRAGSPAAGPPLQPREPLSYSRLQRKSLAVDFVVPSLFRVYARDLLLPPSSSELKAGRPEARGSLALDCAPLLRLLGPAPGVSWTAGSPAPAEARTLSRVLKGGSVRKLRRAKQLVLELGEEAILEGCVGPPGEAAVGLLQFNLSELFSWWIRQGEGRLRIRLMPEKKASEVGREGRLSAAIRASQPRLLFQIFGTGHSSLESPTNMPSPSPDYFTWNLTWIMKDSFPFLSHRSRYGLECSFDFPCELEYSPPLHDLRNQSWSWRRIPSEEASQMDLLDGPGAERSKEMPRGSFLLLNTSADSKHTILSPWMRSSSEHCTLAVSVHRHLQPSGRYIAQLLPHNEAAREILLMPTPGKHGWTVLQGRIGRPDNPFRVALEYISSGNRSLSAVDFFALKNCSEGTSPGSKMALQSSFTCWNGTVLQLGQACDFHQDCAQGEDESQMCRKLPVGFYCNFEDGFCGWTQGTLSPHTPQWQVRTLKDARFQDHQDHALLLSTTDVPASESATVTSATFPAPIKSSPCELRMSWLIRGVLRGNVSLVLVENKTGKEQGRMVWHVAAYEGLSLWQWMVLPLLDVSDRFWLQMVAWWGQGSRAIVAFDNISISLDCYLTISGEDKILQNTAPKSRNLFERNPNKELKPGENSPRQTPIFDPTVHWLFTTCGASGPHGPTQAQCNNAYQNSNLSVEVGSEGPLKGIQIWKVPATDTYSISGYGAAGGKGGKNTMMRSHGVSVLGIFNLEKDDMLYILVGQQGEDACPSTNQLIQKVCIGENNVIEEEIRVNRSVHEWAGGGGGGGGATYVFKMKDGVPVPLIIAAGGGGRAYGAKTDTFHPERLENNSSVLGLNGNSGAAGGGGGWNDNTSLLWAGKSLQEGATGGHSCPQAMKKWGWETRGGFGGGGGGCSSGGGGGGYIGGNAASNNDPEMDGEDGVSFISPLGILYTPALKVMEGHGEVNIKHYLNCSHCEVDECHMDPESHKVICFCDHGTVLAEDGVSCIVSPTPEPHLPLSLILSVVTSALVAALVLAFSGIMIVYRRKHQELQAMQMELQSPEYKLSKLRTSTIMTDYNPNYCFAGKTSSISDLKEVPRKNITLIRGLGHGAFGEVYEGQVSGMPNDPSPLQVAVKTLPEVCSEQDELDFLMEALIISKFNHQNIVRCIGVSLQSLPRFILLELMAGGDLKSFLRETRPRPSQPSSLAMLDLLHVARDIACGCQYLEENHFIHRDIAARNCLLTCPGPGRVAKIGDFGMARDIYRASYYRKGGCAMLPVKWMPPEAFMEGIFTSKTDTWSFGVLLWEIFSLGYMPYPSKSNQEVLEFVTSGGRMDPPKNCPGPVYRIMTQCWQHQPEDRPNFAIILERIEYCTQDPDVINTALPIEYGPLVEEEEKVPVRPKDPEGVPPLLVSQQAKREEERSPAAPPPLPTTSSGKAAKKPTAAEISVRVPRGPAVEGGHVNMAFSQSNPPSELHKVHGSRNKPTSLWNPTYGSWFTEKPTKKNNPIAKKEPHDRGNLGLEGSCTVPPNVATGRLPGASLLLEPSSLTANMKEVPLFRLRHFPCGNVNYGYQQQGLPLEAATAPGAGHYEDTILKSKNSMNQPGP

SMILES: C[C@@H]1COc2cn3ncc4c3nc2N1Cc1cc(F)cnc1O[C@H](CO)CNC4=O [Compound 98, (4R,12S)-8-fluoro-12-(hydroxymethyl)-4-methyl-3,4,13,14-tetrahydro-6H-18,1-(metheno)[1,4]oxazino[3,4-i]pyrazolo[4,3-f]pyrido[3,2-1][1,4,8,10]oxatriazacyclotridecin-15(12H)-one]
- IC50 [1]: 13.3 nM
- IC50 [2]: 3000 nM
- IC50 [3]: 4000 nM

SMILES: CC[C@@H]1COc2cn3ncc4c3nc2N1Cc1cc(F)cnc1OC[C@@H](C)NC4=O [Compound 15, (4R,13R)-4-ethyl-8-fluoro-13-methyl-3,4,13,14-tetrahydro-6H-18,1-(metheno)[1,4]oxazino[3,4-i]pyrazolo[4,3-f]pyrido[3,2-l] [1,4,8,10]oxatriazacyclotridecin-15(12H)-one]
- IC50 [1]: < 0.2 nM
- IC50 [2]: 25.2 nM
- IC50 [3]: 14 nM

SMILES: C[C@H]1CNC(=O)c2cnn3cc4c(nc23)N(CCO4)Cc2c(ccc(F)c2Cl)O1 [Compound 1, (12S)-7-chloro-8-fluoro-12-methyl-3,4,13,14-tetrahydro-6H-18,1-(metheno)[1,4]oxazino[3,4-i]pyrazolo[4,3-f][1,4,8,10]benzoxatriazacyclotridecin-15(12H)-one]
- IC50 [1]: 0.2 nM
- IC50 [2]: 1330 nM
- IC50 [3]: 969 nM

SMILES: C[C@@H]1COc2cn3ncc4c3nc2N(Cc2cc(F)cnc2OCCC(C)(C)NC4=O)C1 [Compound 99, (17S)-12-fluoro-6,6,17-trimethyl-5,6,7,8,17,18-hexahydro-4H,14H,16H-1,20-(metheno)[1,4]oxazepino[4,3-e]pyrazolo[3,4-h]pyrido[2,3-b][1,5,7,11]oxatriazacyclotetradecin-4-one]
- IC50 [1]: 63.7 nM
- IC50 [2]: 1370 nM
- IC50 [3]: 2000 nM

SMILES: C[C@@H]1COc2cn3ncc4c3nc2N1Cc1cc(F)cnc1O[C@H]1CC[C@H](C1)NC4=O [Compound 87, (6R,9S,17R)-13-fluoro-17-methyl-6,7,8,9,17,18-hexahydro-15H-6,9-methano-1,20-(metheno)[1,4]-oxazino[4,3-e]pyrazolo[3,4-h]-pyrido[2,3-b][1,5,7,11]oxatriaza-cyclopentadecin-4(5H)-one]
- IC50 [1]: < 0.2 nM
- IC50 [2]: 17.5 nM
- IC50 [3]: 15 nM

SMILES: C[C@@H]1COc2cn3ncc4c3nc2N1Cc1cc(F)cnc1O[C@H]1C[C@H](C1)NC4=O [Compound 95, (6S,8s,16R)-12-fluoro-16-methyl-5,6,7,8,16,17-hexahydro-4H,14H-6,8-methano-1,19-(metheno)[1,4]-oxazino[4,3-e]pyrazolo[3,4-h]-pyrido[2,3-b][1,5,7,11]oxatriaza-cyclotetradecin-4-one]
- IC50 [1]: < 0.2 nM
- IC50 [2]: 14.1 nM
- IC50 [3]: 16.6 nM

SMILES: CC[C@@H]1COc2cn3ncc4c3nc2N1Cc1cc(F)cnc1O[C@@H](C)CNC4=O [Compound 10, (4R,12S)-4-ethyl-8-fluoro-12-methyl-3,4,13,14-tetrahydro-6H-18,1-(metheno)[1,4]oxazino[3,4-i]pyrazolo[4,3-f]pyrido[3,2-l] [1,4,8,10]oxatriazacyclotridecin-15(12H)-one]
- IC50 [1]: 0.2 nM
- IC50 [2]: 63.1 nM
- IC50 [3]: 71.2 nM

SMILES: C[C@@H]1COc2ncc(F)cc2CN2c3nc4c(cnn4cc3OC[C@H]2C(N)=O)C(=O)N1 [Compound 60, (4S,13R)-8-fluoro-13-methyl-15-oxo-3,4,12,13,14,15-hexahydro-6H-18,1-(metheno)[1,4]oxazino[3,4-i]pyrazolo[4,3-f]pyrido[3,2-l][1,4,8,10]oxatriazacyclotridecine-4-carboxamide]
- IC50 [1]: 51.2 nM
- IC50 [2]: > 10000 nM
- IC50 [3]: > 10000 nM

SMILES: C[C@@H]1COc2cn3ncc4c3nc2N1Cc1cc(F)cnc1OC[C@H](O)CNC4=O [Compound 89, (7R,16R)-12-fluoro-7-hydroxy-16-methyl-5,6,7,8,16,17-hexa-hydro-4H,14H-1,19-(metheno)-[1,4]oxazino[4,3-e]pyrazolo[3,4-h]pyrido[2,3-b][1,5,7,11]oxatriaza-cyclotetradecin-4-one]
- IC50 [1]: < 0.2 nM
- IC50 [2]: 394 nM
- IC50 [3]: 1890 nM

SMILES: C[C@@H]1COc2ncc(F)cc2CN2c3nc4c(cnn4cc3OCC23CC3)C(=O)N1 [Compound 28, (13′R)-8′-fluoro-13′-methyl-3′H,6′H,12′H,14′H,15′H-spiro-[cyclopropane-1,4′-[2,11]dioxa-[5,10,14,17,18,19]hexaaza[18,1]-(metheno)[1,4]oxazino[3,4-i]-pyrazolo[4,3-f]pyrido[3,2-l] [1,4,8,10]oxatriazacyclotridecin]-15′-one]
- IC50 [1]: < 0.2 nM
- IC50 [2]: 786 nM
- IC50 [3]: 180 nM

SMILES: C[C@@H]1COc2ccc(F)cc2CN2c3nc4c(cnn4cc3OC[C@H]2C)C(=O)N1 [Compound 9, (4R,13R)-8-fluoro-4,13-dimethyl-3,4,13,14-tetrahydro-6H-18,1-(metheno)[1,4]oxazino[3,4-i]-pyrazolo[4,3-f][1,4,8,10]benzo-xatriazacyclotridecin-15(12H)-one]
- IC50 [1]: 0.2 nM
- IC50 [2]: 111 nM
- IC50 [3]: 11.7 nM

SMILES: C[C@@H]1COc2ncc(F)cc2CN2c3nc4c(cnn4cc3OCC23CCCC3)C(=O)N1 [Compound 59, (13′R)-8′-fluoro-13′-methyl-3′H,6′H,12′H,13′H,14′H,15′H-spiro[cyclopentane-1,4′-[2,11]-dioxa[5,10,14,17,18,19]hexaaza-[18,1](metheno)[1,4]oxazino-[3,4-i]pyrazolo[4,3-f]pyrido-[3,2-l][1,4,8,10]oxatriazacyclo-tridecin]-15′-one]
- IC50 [1]: < 0.2 nM
- IC50 [2]: 2000 nM
- IC50 [3]: 1020 nM

SMILES: C[C@@H]1COc2cn3ncc4c3nc2N1Cc1cc(F)cnc1OC[C@@H](F)CNC4=O [Compound 78, (7S,16R)-7,12-difluoro-16-methyl-5,6,7,8,16,17-hexahydro-4H,14H,- 1,19-(metheno)[1,4]oxazino[4,3-e]pyrazolo[3,4-h]pyrido[2,3-b] [1,5,7,11]oxatriazacyclotetradecin-4-one]
- IC50 [1]: < 0.2 nM
- IC50 [2]: 10.2 nM
- IC50 [3]: 33 nM

SMILES: C[C@@H]1COc2c(F)cc(F)cc2CN2c3nc4c(cnn4cc3OC[C@H]2C)C(=O)N1 [Compound 16, (4R,13R)-8,10-difluoro-4,13-dimethyl-3,4,13,14-tetrahydro-6H-18,1-(metheno)[1,4]oxazino-[3,4-i]pyrazolo[4,3-f][1,4,8,10]-benzoxatriazacyclotridecin-15(12H)-one]
- IC50 [1]: < 0.2 nM
- IC50 [2]: 827 nM
- IC50 [3]: 90.2 nM

SMILES: C[C@@H]1COc2cn3ncc4c3nc2N(Cc2cc(F)cnc2OC[C@@H](C)NC4=O)C1 [Compound 29, (4S,14R)-9-fluoro-4,14-dimethyl-4,5,14,15-tetrahydro-3H,7H-19,1-(metheno)[1,4]oxazepino[3,4-i]-pyrazolo[4,3-f]pyrido[3,2-l] [1,4,8,10]oxatriazacyclotridecin-16(13H)-one]
- IC50 [1]: 9.6 nM
- IC50 [2]: 130 nM
- IC50 [3]: 826 nM

SMILES: C[C@H]1CNC(=O)c2cnn3cc4c(nc23)N(Cc2cc(F)cnc2O1)CC(F)(F)CO4 [Compound 77, (13S)-4,4,9-trifluoro-13-methyl-4,5,14,15-tetrahydro-3H,7H-19,1-(metheno)[1,4]oxazepino[3,4-i]-pyrazolo[4,3-f]pyrido[3,2-l] [1,4,8,10]oxatriazacyclotridecin-16(13H)-one]
- IC50 [1]: 446 nM
- IC50 [2]: 10000 nM
- IC50 [3]: > 10000 nM

SMILES: CC1CNC(=O)c2cnn3cc4c(nc23)N(Cc2cc(F)cnc2OC1)[C@H](C)CO4 (stereo partly drawn) [Compound 71, (16R)-12-fluoro-7,16-dimethyl-5,6,7,8,16,17-hexahydro-4H,14H-1,19-(metheno)[1,4]oxazino[4,3-e]pyrazolo[3,4-h]pyrido[2,3-b] [1,5,7,11]oxatriazacyclotetradecin-4-one]
- IC50 [1]: < 0.2 nM
- IC50 [2]: 11.9 nM
- IC50 [3]: 19.9 nM

SMILES: COC[C@@H]1COc2cn3ncc4c3nc2N1Cc1cc(F)cnc1OC[C@@H](C)NC4=O [Compound 44, (4R,13R)-8-fluoro-4-(methoxymethyl)-13-methyl-3,4,13,14-tetrahydro-6H-18,1-(metheno)[1,4]oxazino[3,4-i]pyrazolo[4,3-f]pyrido[3,2-1][1,4,8,10]oxatriazacyclotridecin-15(12H)-one]
- IC50 [1]: < 0.2 nM
- IC50 [2]: 168 nM
- IC50 [3]: 549 nM

SMILES: C[C@H]1CNC(=O)c2cnn3cc4c(nc23)N(Cc2cc(F)cnc2O1)C1(CO4)CC(F)(F)C1 [Compound 64, (12′S)-3,3,8′-trifluoro-12′-methyl-3′H,6′H,12′H,13′H,14′H,15′H-spiro[cyclobutane-1,4′-[2,11]-dioxa[5,10,14,17,18,19]hexaaza-[18,1](metheno)[1,4]oxazino[3,4-i]pyrazolo[4,3-f]pyrido[3,2-l] [1,4,8,10]oxatriazacyclotridecin]-15′-one]
- IC50 [1]: < 0.2 nM
- IC50 [2]: 10000 nM
- IC50 [3]: 1230 nM
